Experiment: Cytotoxicity against human MT4 cells
Format: cell-based

Cc1cccc(Nn2c(S)nc(C)c2C)c1
CC50: 360 µM

Cc1ccc(Nn2c(-c3ccccc3)c(C)[nH]c2=S)cc1Cl
CC50: 44.3 µM

COC(=O)c1c(C)nc(S)n1Nc1cccc(Cl)c1
CC50: 190 µM

COc1ccc(-c2c(C)[nH]c(=S)n2Nc2cccc(Cl)c2)cc1
CC50: 38.7 µM

CCc1[nH]c(=S)n(Nc2cccc(Cl)c2)c1-c1ccccc1
CC50: 39 µM

COC(=O)c1c(C)ncn1Nc1cccc(Cl)c1
CC50: 107 µM

Cc1ncn(Nc2cccc(Cl)c2)c1-c1cccc(N)c1
CC50: 261 µM

Sc1nc2c(n1Nc1cccc(Cl)c1)CCCC2
CC50: 126 µM

Cc1cccc(Nn2c(S)nc(C)c2-c2cccc(C(=O)O)c2)c1
CC50: 187 µM

Cc1cccc(Nn2cnc(C)c2-c2cccc(C#N)c2)c1
CC50: 44.7 µM

Cc1cccc(Nn2cnc(C)c2C)c1
CC50: 312 µM

Cc1nc(S)n(Nc2cccc(Cl)c2)c1C(=O)O
CC50: 265 µM

Cc1ccc(Nn2c(-c3ccccc3)c(C)[nH]c2=S)cc1C
CC50: 55.6 µM

Cc1ncn(Nc2cccc(Cl)c2)c1-c1cccc(C#N)c1
CC50: 36.8 µM

Cc1ncn(Nc2cccc(Cl)c2)c1-c1cccc(Br)c1
CC50: 16.4 µM

CCc1[nH]c(=S)n(Nc2cccc(C)c2)c1-c1ccccc1
CC50: 53.6 µM

COc1cccc(Nn2c(S)nc(C)c2-c2ccccc2)c1
CC50: 38 µM

Cc1[nH]c(=S)n(Nc2cccc(Cl)c2)c1-c1ccccc1
CC50: 66.7 µM

Cc1ncn(Nc2ccccc2)c1C
CC50: 352 µM

Cc1[nH]c(=S)n(Nc2cccc([N+](=O)[O-])c2)c1-c1ccccc1
CC50: 48.3 µM

Cc1[nH]c(=S)n(Nc2ccc(F)cc2)c1-c1ccccc1
CC50: 220 µM

Cc1cc(C)cc(Nn2cnc(C)c2-c2ccccc2)c1
CC50: 20.4 µM

Cc1nc(S)n(Nc2cccc(Cl)c2)c1-c1cccc(N)c1
CC50: 42.2 µM

Sc1nc(-c2ccccc2)c(-c2ccccc2)n1Nc1cccc(Cl)c1
CC50: 36.3 µM

Cc1ncn(Nc2cccc(Cl)c2)c1-c1cccc(C(=O)O)c1
CC50: 161 µM

CCc1ncn(Nc2cccc(C)c2)c1-c1ccccc1
CC50: 27.9 µM

COC(=O)c1cccc(-c2c(C)ncn2Nc2cccc(Cl)c2)c1
CC50: 33.1 µM

Cc1[nH]c(=S)n(Nc2cccc(Cl)c2)c1-c1ccc(Cl)cc1
CC50: 40.8 µM

CCc1ccc(Nn2c(S)nc(C)c2-c2ccccc2)cc1
CC50: 34.4 µM

Cc1nc(S)n(Nc2cccc(Cl)c2)c1-c1cccc(C#N)c1
CC50: 99.3 µM

Cc1cccc(Nn2c(-c3ccccc3)c(C(C)C)[nH]c2=S)c1
CC50: 42.7 µM

Cc1cc(C)cc(Nn2c(-c3ccccc3)c(C)[nH]c2=S)c1
CC50: 194 µM

COC(=O)c1cccc(-c2c(C)nc(S)n2Nc2cccc(Cl)c2)c1
CC50: 67.3 µM

Cc1ncn(Nc2cccc(Cl)c2)c1-c1ccccc1
CC50: 17.5 µM

Cc1ncn(Nc2ccccc2)c1-c1ccccc1
CC50: 52.1 µM

COc1cccc(Nn2cnc(C)c2-c2ccccc2)c1
CC50: 34.4 µM

Cc1cccc(Nn2cnc(C)c2-c2ccccc2)c1
CC50: 27 µM

COC(=O)c1nc(S)n(Nc2cccc(Cl)c2)c1C
CC50: 48.8 µM

Cc1nc(S)n(Nc2ccccc2)c1C
CC50: 181 µM

Cc1ncn(Nc2ccc(F)cc2)c1-c1ccccc1
CC50: 30.8 µM

Clc1cccc(Nn2cnc3c2CCCC3)c1
CC50: 67.3 µM

Cc1[nH]c(=S)n(Nc2cccc(Cl)c2)c1-c1cccc(Br)c1
CC50: 44 µM

Cc1[nH]c(=S)n(Nc2ccccc2)c1-c1ccccc1
CC50: 191 µM

Cc1[nH]c(=S)n(Nc2cccc(Br)c2)c1-c1ccccc1
CC50: 44.3 µM

Cc1cccc(Nn2c(-c3ccccc3)c(C)[nH]c2=S)c1
CC50: 88.3 µM

Cc1nc(S)n(Nc2cccc(Cl)c2)c1C
CC50: 259 µM

Cc1nc(S)n(Nc2cccc(Cl)c2)c1-c1ccc(Br)cc1
CC50: 33.2 µM

Cc1[nH]c(=S)n(Nc2cccc(Cl)c2)c1-c1cccc(Cl)c1
CC50: 31 µM

Cc1ncn(Nc2cccc(Cl)c2)c1-c1cccc(Cl)c1
CC50: 11.9 µM

Cc1nc(S)n(Nc2cccc3ccccc23)c1-c1ccccc1
CC50: 12 µM

Cc1ncn(Nc2cccc(Cl)c2)c1C
CC50: 214 µM

Cc1[nH]c(=S)n(Nc2cccc(F)c2)c1-c1ccccc1
CC50: 109 µM

CSc1ccc(Nn2c(S)nc(C)c2-c2ccccc2)cc1
CC50: 53.1 µM

Cc1cccc(Nn2cnc(C)c2-c2cccc(N)c2)c1
CC50: 163 µM

Cc1cccc(Nn2c(S)nc(C)c2-c2cccc(C#N)c2)c1
CC50: 45.6 µM

Cc1c(-c2ccccc2)nc(S)n1Nc1cccc(Cl)c1
CC50: 50 µM

Cc1[nH]c(=S)n(Nc2ccc(Cl)cc2)c1-c1ccccc1
CC50: 135 µM

Cc1nc(S)n(Nc2cccc(Cl)c2)c1-c1cccc(C(=O)O)c1
CC50: 120 µM

Cc1nc(S)n(Nc2cc(Cl)ccc2Cl)c1-c1ccccc1
CC50: 147 µM

Cc1[nH]c(=S)n(Nc2ccccc2Cl)c1-c1ccccc1
CC50: 162 µM

— ChEMBL document CHEMBL1158352, “Development of CoMFA and CoMSIA models of cytotoxicity data of anti-HIV-1-phenylamino-1H-imidazole derivatives” (Eur J Med Chem, 2009)
